How the values were obtained:
common mallow = assay: Test F preemergence test; format: in vivo, Malva sylvestris; conditions: scale 0 to 100
Method in brief: (§1)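 Preemergence application to planted seeds, or postemergence to sugarcane plants; compound in non-phytotoxic solvent mix plus surfactant. Greenhouse, 14-21 days. Visual rating vs. controls.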

barnyardgrass [1] = assay: Test A pre-/postemergence greenhouse test; format: in vivo, Echinochloa crus-galli; conditions: for Barnyardgrass plant response rating: 0 to 100 scale; for Plant response rating, Barnyardgrass: 0 to 100 scale where 0 is no effect and 100 is complete control
Method in brief: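 Greenhouse herbicide screen, pre- and postemergence in parallel. Soil: loam plus sand. Formulation: non-phytotoxic solvent mix with surfactant. Postemergence stage: one to two leaves, 2–10 cm height. Evaluation: visual injury, compared with untreated controls, about 10 days after treatment.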

barnyardgrass [2] = assay: Test F preemergence test; format: in vivo, Echinochloa crus-galli; conditions: scale 0 to 100
Method in brief: as §1

mustard = assay: Test F preemergence test; format: in vivo, Brassica nigra; conditions: scale 0 to 100
Method in brief: as §1

cocklebur = assay: Test C pre-/postemergence test; format: in vivo, Xanthium strumarium; conditions: for Plant response rating, Cocklebur: scale 0 to 100, 0 no effect, 100 complete control
Method in brief: (§2)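 Seeds were planted and treated preemergence with test chemical in a non-phytotoxic solvent mixture containing surfactant. Postemergence applications of the same formulation went onto plants 2 to 18 cm tall (1- to 4-leaf stage). A dash marks no test result.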

broadleaf signalgrass = assay: Test F preemergence test; format: in vivo, Brachiaria platyphylla; conditions: scale 0 to 100
Method in brief: as §1

dallisgrass = assay: Test F preemergence test; format: in vivo, Paspalum dilatatum; conditions: scale 0 to 100
Method in brief: as §1

velvetleaf = assay: Test C pre-/postemergence test; format: in vivo, Abutilon theophrasti; conditions: for Plant response rating, Velvetleaf: scale 0 to 100, 0 no effect, 100 complete control; for Velvetleaf plant response rating: preemergence, scale 0 (no effect) to 100 (complete control)
Method in brief: as §2

Virginia dayflower = assay: Test F preemergence test; format: in vivo, Commelina virginica; conditions: scale 0 to 100
Method in brief: as §1

annual bluegrass = assay: Test F preemergence test; format: in vivo, Poa annua; conditions: scale 0 to 100
Method in brief: as §1

itchgrass = assay: Test F preemergence test; format: in vivo, Rottboellia cochinchinensis; conditions: scale 0 to 100
Method in brief: as §1

kochia = assay: Test C pre-/postemergence test; format: in vivo, Kochia scoparia; conditions: for Plant response rating, Kochia: scale 0 to 100, 0 no effect, 100 complete control
Method in brief: as §2

field bindweed = assay: Test F preemergence test; format: in vivo, Convolvulus arvensis; conditions: scale 0 to 100
Method in brief: as §1

green foxtail = assay: Test F preemergence test; format: in vivo, Setaria viridis; conditions: scale 0 to 100
Method in brief: as §1

[3] = Postemergence, 125 g ai/ha, 0 is no effect, 100 is complete control
[4] = Postemergence, 500 g ai/ha, 0 is no effect, 100 is complete control
[5] = Preemergence, 125 g ai/ha, 0 no effect, 100 complete control
[6] = 31 g ai/ha, Preemergence, scale 0 to 100
[7] = 62 g ai/ha, preemergence, scale 0 (no effect) to 100 (complete control)
[8] = preemergence, 125 g ai/ha, scale 0 (no effect) to 100 (complete control)

Cc1cc[n+]([O-])c([S+]([O-])Cc2c(C(F)(F)F)nn(C)c2OC(F)F)c1 (stereo not shown) [Compound 1]
Plant response rating, Mallow (common mallow; 8 g ai/ha, preemergence): 0 | Mallow plant response rating (common mallow; 62 g ai/ha, Preemergence): 100 | Plant response rating, Mallow (common mallow; Preemergence, 16 g ai/ha): 0 | Plant response rating, Mallow (common mallow; Preemergence, 31 g ai/ha): 70 | Barnyardgrass plant response rating (barnyardgrass [1]; [3]): 80 | Barnyardgrass plant response rating (barnyardgrass [1]; [4]): 80 | Barnyardgrass plant response rating (barnyardgrass [1]; [5]): 90 | Plant response rating, Barnyardgrass (barnyardgrass [1]; Preemergence, 500 g ai/ha): 100 | Plant response rating, Barnyardgrass (barnyardgrass [2]; 8 g ai/ha, preemergence): 5 | Barnyardgrass plant response rating (barnyardgrass [2]; 62 g ai/ha, Preemergence): 90 | Plant response rating, Barnyardgrass (barnyardgrass [2]; Preemergence, 16 g ai/ha): 60 | Plant response rating, Barnyardgrass (barnyardgrass [2]; Preemergence, 31 g ai/ha): 80 | Plant response rating, Black Mustard (mustard; 8 g ai/ha, preemergence): 0 | Black Mustard plant response rating (mustard; 62 g ai/ha, Preemergence): 100 | Plant response rating, Black Mustard (mustard; Preemergence, 16 g ai/ha): 0 | Plant response rating, Black Mustard (mustard; Preemergence, 31 g ai/ha): 80 | Cocklebur plant response rating (cocklebur; [6]): 0 | Cocklebur plant response rating (cocklebur; [7]): 0 | Plant response rating (0 to 100), Cocklebur (cocklebur; Postemergence, 31 g ai/ha): 0 | Plant response rating, Cocklebur (cocklebur; Postemergence, 62 g ai/ha): 0 | Plant response rating, Cocklebur (cocklebur; Postemergence, 125 g ai/ha): 0 | Plant response rating, Cocklebur (cocklebur; Postemergence, 250 g ai/ha): 0 | Plant response rating (0 to 100), Cocklebur (cocklebur; Preemergence, 250 g ai/ha): 60 | Cocklebur plant response rating (cocklebur; [8]): 0 | Plant response rating, Signalgrass (broadleaf signalgrass; 8 g ai/ha, preemergence): 0 | Plant response rating, Signalgrass (broadleaf signalgrass; 16 g ai/ha, preemergence): 0 | Signalgrass plant response rating (broadleaf signalgrass; 62 g ai/ha, Preemergence): 50 | Plant response rating, Signalgrass (broadleaf signalgrass; Preemergence, 31 g ai/ha): 25 | Plant response rating, Dallisgrass (dallisgrass; 8 g ai/ha, preemergence): 0 | Dallisgrass plant response rating (dallisgrass; 62 g ai/ha, Preemergence): 50 | Plant response rating, Dallisgrass (dallisgrass; Preemergence, 16 g ai/ha): 0 | Plant response rating, Dallisgrass (dallisgrass; Preemergence, 31 g ai/ha): 20 | Plant response rating (0 to 100), Velvetleaf (velvetleaf; Postemergence, 31 g ai/ha): 10 | Plant response rating (0 to 100), Velvetleaf (velvetleaf; Postemergence, 62 g ai/ha): 40 | Plant response rating, Velvetleaf (velvetleaf; Postemergence, 125 g ai/ha): 45 | Plant response rating, Velvetleaf (velvetleaf; Postemergence, 250 g ai/ha): 60 | Plant response rating, Dayflower (Virginia dayflower; 8 g ai/ha, preemergence): 0 | Dayflower plant response rating (Virginia dayflower; 62 g ai/ha, Preemergence): 100 | Plant response rating, Dayflower (Virginia dayflower; Preemergence, 16 g ai/ha): 0 | Plant response rating, Dayflower (Virginia dayflower; Preemergence, 31 g ai/ha): 80 | Plant response rating, Bluegrass (annual bluegrass; 8 g ai/ha, preemergence): 0 | Bluegrass plant response rating (annual bluegrass; 62 g ai/ha, Preemergence): 75 | Plant response rating, Bluegrass (annual bluegrass; Preemergence, 16 g ai/ha): 0 | Plant response rating, Bluegrass (annual bluegrass; Preemergence, 31 g ai/ha): 25 | Plant response rating, Itchgrass (itchgrass; 8 g ai/ha, preemergence): 0 | Itchgrass plant response rating (itchgrass; 62 g ai/ha, Preemergence): 90 | Plant response rating, Itchgrass (itchgrass; Preemergence, 16 g ai/ha): 60 | Plant response rating, Itchgrass (itchgrass; Preemergence, 31 g ai/ha): 70 | Kochia plant response rating (kochia; [6]): 100 | Kochia plant response rating (kochia; [7]): 100 | Plant response rating (0 to 100), Kochia (kochia; Postemergence, 31 g ai/ha): 0 | Plant response rating, Kochia (kochia; Postemergence, 62 g ai/ha): 0 | Plant response rating, Kochia (kochia; Postemergence, 125 g ai/ha): 10 | Plant response rating, Kochia (kochia; Postemergence, 250 g ai/ha): 40 | Plant response rating (0 to 100), Kochia (kochia; Preemergence, 250 g ai/ha): 100 | Kochia plant response rating (kochia; [8]): 100 | Plant response rating, Field Bindweed (field bindweed; 8 g ai/ha, preemergence): 0 | Field Bindweed plant response rating (field bindweed; 62 g ai/ha, Preemergence): 75 | Plant response rating, Field Bindweed (field bindweed; Preemergence, 16 g ai/ha): 0 | Plant response rating, Field Bindweed (field bindweed; Preemergence, 31 g ai/ha): 50 | Plant response rating, Foxtail, Green (green foxtail; 8 g ai/ha, preemergence): 0 | Foxtail, Green plant response rating (green foxtail; 62 g ai/ha, Preemergence): 100 | Plant response rating, Foxtail, Green (green foxtail; Preemergence, 16 g ai/ha): 60 | Plant response rating, Foxtail, Green (green foxtail; Preemergence, 31 g ai/ha): 80

Cc1cc[n+]([O-])c(S(=O)(=O)C(C)c2c(C(F)(F)F)nn(C)c2OC(F)F)c1 (stereo not shown) [Compound 11]
Mallow plant response rating (common mallow; 62 g ai/ha, Preemergence): 100 | Mallow plant response rating (common mallow; 125 g ai/ha, preemergence): 100 | Plant response rating, Mallow (common mallow; Preemergence, 16 g ai/ha): 30 | Plant response rating, Mallow (common mallow; Preemergence, 31 g ai/ha): 30 | Barnyardgrass plant response rating (barnyardgrass [1]; [3]): 70 | Barnyardgrass plant response rating (barnyardgrass [1]; [4]): 80 | Barnyardgrass plant response rating (barnyardgrass [1]; [5]): 90 | Plant response rating, Barnyardgrass (barnyardgrass [1]; Preemergence, 500 g ai/ha): 100 | Barnyardgrass plant response rating (barnyardgrass [2]; 62 g ai/ha, Preemergence): 95 | Barnyardgrass plant response rating (barnyardgrass [2]; 125 g ai/ha, preemergence): 98 | Plant response rating, Barnyardgrass (barnyardgrass [2]; Preemergence, 16 g ai/ha): 75 | Plant response rating, Barnyardgrass (barnyardgrass [2]; Preemergence, 31 g ai/ha): 95 | Black Mustard plant response rating (mustard; 62 g ai/ha, Preemergence): 100 | Black Mustard plant response rating (mustard; 125 g ai/ha, preemergence): 100 | Plant response rating, Black Mustard (mustard; Preemergence, 16 g ai/ha): 35 | Plant response rating, Black Mustard (mustard; Preemergence, 31 g ai/ha): 80 | Cocklebur plant response rating (cocklebur; [6]): 0 | Cocklebur plant response rating (cocklebur; [7]): 0 | Plant response rating (0 to 100), Cocklebur (cocklebur; Preemergence, 250 g ai/ha): 0 | Cocklebur plant response rating (cocklebur; [8]): 0 | Signalgrass plant response rating (broadleaf signalgrass; 62 g ai/ha, Preemergence): 75 | Signalgrass plant response rating (broadleaf signalgrass; 125 g ai/ha, preemergence): 75 | Plant response rating, Signalgrass (broadleaf signalgrass; Preemergence, 31 g ai/ha): 65 | Dallisgrass plant response rating (dallisgrass; 62 g ai/ha, Preemergence): 90 | Dallisgrass plant response rating (dallisgrass; 125 g ai/ha, preemergence): 100 | Plant response rating, Dallisgrass (dallisgrass; Preemergence, 16 g ai/ha): 65 | Plant response rating, Dallisgrass (dallisgrass; Preemergence, 31 g ai/ha): 80 | Velvetleaf plant response rating (velvetleaf; 62 g ai/ha): 70 | Plant response rating (0 to 100), Velvetleaf (velvetleaf; Preemergence, 250 g ai/ha): 100 | Velvetleaf plant response rating (velvetleaf; 125 g ai/ha): 100 | Dayflower plant response rating (Virginia dayflower; 62 g ai/ha, Preemergence): 100 | Dayflower plant response rating (Virginia dayflower; 125 g ai/ha, preemergence): 100 | Plant response rating, Dayflower (Virginia dayflower; Preemergence, 16 g ai/ha): 0 | Plant response rating, Dayflower (Virginia dayflower; Preemergence, 31 g ai/ha): 80 | Bluegrass plant response rating (annual bluegrass; 62 g ai/ha, Preemergence): 60 | Bluegrass plant response rating (annual bluegrass; 125 g ai/ha, preemergence): 90 | Plant response rating, Bluegrass (annual bluegrass; Preemergence, 16 g ai/ha): 0 | Plant response rating, Bluegrass (annual bluegrass; Preemergence, 31 g ai/ha): 30 | Itchgrass plant response rating (itchgrass; 62 g ai/ha, Preemergence): 70 | Itchgrass plant response rating (itchgrass; 125 g ai/ha, preemergence): 95 | Plant response rating, Itchgrass (itchgrass; Preemergence, 16 g ai/ha): 0 | Plant response rating, Itchgrass (itchgrass; Preemergence, 31 g ai/ha): 40 | Kochia plant response rating (kochia; [6]): 60 | Kochia plant response rating (kochia; [7]): 100 | Plant response rating (0 to 100), Kochia (kochia; Preemergence, 250 g ai/ha): 100 | Kochia plant response rating (kochia; [8]): 100 | Field Bindweed plant response rating (field bindweed; 62 g ai/ha, Preemergence): 60 | Field Bindweed plant response rating (field bindweed; 125 g ai/ha, preemergence): 75 | Plant response rating, Field Bindweed (field bindweed; Preemergence, 16 g ai/ha): 0 | Plant response rating, Field Bindweed (field bindweed; Preemergence, 31 g ai/ha): 0 | Foxtail, Green plant response rating (green foxtail; 62 g ai/ha, Preemergence): 80 | Foxtail, Green plant response rating (green foxtail; 125 g ai/ha, preemergence): 90 | Plant response rating, Foxtail, Green (green foxtail; Preemergence, 16 g ai/ha): 5 | Plant response rating, Foxtail, Green (green foxtail; Preemergence, 31 g ai/ha): 35

From US20100298141A1, “SUBSTITUTED PYRIDINE N-OXIDE HERBICIDES” (E. I. DU PONT DE NEMOURS AND COMPANY, priority 2007, published 2010)
